This assay relates to 233499-124-R-J3-PDC complex spheroid viability. In words: Anticancer human tumor 233499-124-R-J3-PDC patient-derived colon adenocarcinoma cell line growth inhibition [CLK]. The conditions noted are these: for viability, T/C: stronger effect = lower value. The text has this:
A high-throughput screen of multi-cell type tumor spheroids was designed to identify active combinations of […] and targeted small molecules. Complex spheroids include a stromal component modeled by human endothelial cells (HUVEC) and fibroblasts modeled by human mesenchymal stem cells (MSCs). The concentration ranges selected for each drug and investigational agent were based upon clinically achievable concentrations if the clinical Cmax of the agent was known.
Compounds. The drugs and investigational agents: cirtuvivint (SM08502; NSC835563), CC-671 (NSC850746), vemurafenib (NSC761431), tapotoclax (NSC804041), sotorasib (NSC818433), adagrasib (NSC831453), MRTX-1133 (NSC836407), BAY2416964 (NSC825713), copanlisib (NSC816437), inavolisib (NSC800729), abemaciclib (NSC768073), osimertinib (NSC779217), entinostat (NSC756642), eltanexor (KPT-8602, NSC794443), venetoclax (NSC766270), ceralasertib (NSC777638), bortezomib (NSC756655), olaparib (NSC753686), talazoparib (NSC767125), alisertib (NSC759677), peposertib (NSC802822), gemcitabine (NSC613327), 5-fluorouracil (NSC19893), SN-38 (NSC673596), oxaliplatin (NSC266046), paclitaxel (NSC125973), and doxorubicin (NSC123127), were obtained from the National Cancer Institute (NCI) Developmental Therapeutics Program Chemical Repository. The FDA-approved anticancer drug set is available from the Developmental Therapeutics Program at https://dtp.cancer.gov/organization/dscb/obtaining/available plates.htm. […] The stock solutions were prepared in dimethyl sulfoxide (DMSO, Sigma-Aldrich, St. Louis, MO, cat. D2650), except for the platinum complexes which were prepared in saline (Quality Biological, Gaithersburg, MD, cat. 114-055-101), at 800-fold the tested concentration and stored at -70 degrees C prior to their use. All drugs and investigational agents were tested over a range starting from a high concentration at or near the clinical Cmax and decreasing in half-log increments. If the clinical Cmax for an agent had not been determined, the highest concentration tested was 10 microM.
Cell Culture. All cells were maintained in an incubator at 37 degrees C and 5% CO2 with 95% humidity. The PDC lines were cultured according to standard operating procedures established by the NCI PDMR. Briefly, all PDCs were thawed and cultured in Matrigel-coated flasks prepared with a working solution of 1X Ham's F-12 nutrient mix, without supplementation (Invitrogen, Waltham, MA, cat. 11765054), 100 U/mL penicillin-streptomycin (Invitrogen, cat. 15140122), and 2.5% Matrigel (Corning Inc., Corning, NY, cat. 354248) for the first three passages. The 947758-054-R-J2-PDC line was cultured in 6B/Colon 1A media, which includes advanced DMEM/F-12 (Thermo Fisher Scientific, cat. 12634028), 10 mM HEPES (Thermo Fisher Scientific, cat. 15630080), 1X GlutaMAX supplement (Thermo Fisher Scientific, cat. 35050061), 0.1 mg/mL primocin (InvivoGen, cat. ant-pm-2), 10% defined fetal bovine serum, heat inactivated (HyClone Laboratories Inc., cat. SH30070.03HI), 1.25 mM N-Acetyl-L-cysteine (Sigma-Aldrich, cat. A9165), 10 mM nicotinamide (Sigma-Aldrich, cat. N0636), 1X B-27 supplement (Thermo Fisher Scientific, cat. 17504044), 1X N-2 supplement (Thermo Fisher Scientific, cat. 17502048), and 10 microM Y-27632 dihydrochloride (Tocris Bioscience, cat. 1254). The 876862-298-R-J1-PDC was cultured in 6E media, which includes all 6B/Colon 1A media components plus 50% L-WRN conditioned media (ATCC, cat. CRL-3276), 50 ng/mL recombinant human EGF recombinant protein (hEGF; Thermo Fisher Scientific, cat. PHG0311), 10 ng/mL recombinant human fibroblast growth factor 10 (hGFG-10; PeproTech, cat. 100-26), 1 ng/mL recombinant human fibroblast growth factor 2 (hFGF-2; PeproTech, cat. 100-18B), and 1 µM prostaglandin E2 (PGE2; Tocris, cat. 2296). The 227483-062-R1-J1-PDC line was cultured in Panc media, containing all 6E components except hFGF-2, with the addition of 500 nM SB-431542 (Selleckchem, cat. S1067) and 10 nM gastrin (Tocris, cat. 3006). […]

Several values for one entry are separate records, joined by “and”; a condition that tells them apart may be missing. Equal values may be shown once. Where only a bound is given, the exact number is not on record here.

For orientation: viability, T/C means the result in the treated group divided by that in the control group, in per cent. For orientation: IC50 means the midpoint of a concentration-inhibition curve.
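Note: spheroids exposed to the drug combinations for seven days.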
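Throughout, for viability, T/C: percent viability relative to DMSO vehicle control wells taken as 100%.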

In the case of `C#Cc1c(F)ccc2cc(O)cc(-c3ncc4c(N5CC6CCC(C5)N6)nc(OCC56CCCN5CC(F)C6)nc4c3F)c12` (stereo unspecified), the viability, T/C is, setting by setting: (compound 0.0316 µM) 86.1% and 87.7%; (compound 0.1 µM) 102% and 104%; (compound 0.316 µM) 95.6% and 105%; (compound 1 µM) 92% and 87.8%; (compound 3.16 µM) 89.5% and 79%; (compound 10 µM) 76.6% and 78.5%. Further, the IC50 (curve of compound) is more than 10000 nM.

On to `C=C(F)C(=O)N1CCN(c2nc(OCC3CCCN3C)nc3c2CCN(c2cccc4cccc(Cl)c24)C3)CC1CC#N` (stereo unspecified), for which the viability, T/C was 99.9% and 96.2% (compound 0.0316 µM); 86.9% and 90.1% (compound 0.1 µM); 97% and 99.1% (compound 0.316 µM); 95.4% and 97.3% (compound 1 µM); 94.6% and 89.2% (compound 3.16 µM); 38% and 87.9% (compound 10 µM). For the same compound, under “curve of compound”, the IC50 was 7840 nM and > 10000 nM.

Take `C=CC(=O)N1CCN(c2nc(=O)n(-c3c(C)ccnc3C(C)C)c3nc(-c4c(O)cccc4F)c(F)cc23)C(C)C1` (stereo unspecified): the viability, T/C was 90.5% and 101% (compound 0.0316 µM); 81.9% and 87.6% (compound 0.1 µM); 90.6% and 110% (compound 0.316 µM); 87.6% and 101% (compound 1 µM); 95% and 104% (compound 3.16 µM); 96% and 92.6% (compound 10 µM). For the same compound, for the setting “curve of compound”, the IC50 is more than 10000 nM.

Consider `C=CC(=O)Nc1cc(Nc2nccc(-c3cn(C)c4ccccc34)n2)c(OC)cc1N(C)CCN(C)C`, for which the viability, T/C reads like this: (compound 0.000949 µM) 92.5% and 102%; (compound 0.003 µM) 91.5% and 98.6%; (compound 0.00949 µM) 99.7% and 103%; (compound 0.03 µM) 96.9% and 87.8%; (compound 0.0949 µM) 86% and 93.7%; (compound 0.3 µM) 76.8% and 82.2%. Moreover, where the note is “curve of compound”, the IC50 is more than 300 nM.

Regarding `CC(C)CC(NC(=O)C(Cc1ccccc1)NC(=O)c1cnccn1)B(O)O` (stereo unspecified), the viability, T/C reads like this: (compound 0.000949 µM) 101% and 106%; (compound 0.003 µM) 88.8% and 88.5%; (compound 0.00949 µM) 0.33% and 0.18%; (compound 0.03 µM) 0.31% and 0.22%; (compound 0.0949 µM) 0.13% and 0.2%; (compound 0.3 µM) 0.14% and 0.2%. Also, under “curve of compound”, the IC50 is 4.97 nM and 4.96 nM.

Regarding `CC(CO)NC(=O)c1cc(-c2ccc(Cl)cc2)nn(-c2cnn(C)c2)c1=O` (stereo unspecified), the viability, T/C reads like this: (compound 0.0316 µM) 103% and 94.8%; (compound 0.1 µM) 95.2% and 90.1%; (compound 0.316 µM) 96.3% and 95.6%; (compound 1 µM) 96.8% and 92.9%; (compound 3.16 µM) 92.7% and 96%; (compound 10 µM) 89.7% and 83.2%. For the same compound, the IC50 (curve of compound) is more than 10000 nM.

For the compound `CC(Nc1ccc2c(c1)OCCn1cc(N3C(=O)OCC3C(F)F)nc1-2)C(N)=O` (stereo unspecified), the viability, T/C runs as follows: (compound 0.0316 µM) 94%; (compound 0.1 µM) 83.7%; (compound 0.316 µM) 79.8%; (compound 1 µM) 74.8%; (compound 3.16 µM) 61.7%; (compound 10 µM) 51.9%. Besides, the concentration for half-maximal inhibition (IC50) (curve of compound) was more than 10000 nM.

For the compound `CC1(C)CCC(CN2CCN(c3ccc(C(=O)NS(=O)(=O)c4ccc(NCC5CCOCC5)c([N+](=O)[O-])c4)c(Oc4cnc5[nH]ccc5c4)c3)CC2)=C(c2ccc(Cl)cc2)C1`, the viability, T/C (compound 0.0316 µM) is 99.6% and 96.4%; the viability, T/C (compound 0.1 µM) was 98.9% and 93.4%; the viability, T/C (compound 0.316 µM) was 99.4% and 96.6%; the viability, T/C (compound 1 µM) was 95.5% and 98.7%; the viability, T/C (compound 3.16 µM) was 111% and 105%; the viability, T/C (compound 10 µM) was 12.8% and 25.5%. Where the note is “curve of compound”, the IC50 was 6150 nM and 6780 nM.

For the compound `CCCS(=O)(=O)Nc1ccc(F)c(C(=O)c2c[nH]c3ncc(-c4ccc(Cl)cc4)cc23)c1F`, the viability, T/C (compound 0.0316 µM) was 91.2% and 100%; the viability, T/C (compound 0.1 µM) is 97.3% and 103%; the viability, T/C (compound 0.316 µM) was 111% and 99.1%; the viability, T/C (compound 1 µM) is 104% and 110%; the viability, T/C (compound 3.16 µM) was 104% and 105%; the viability, T/C (compound 10 µM) is 98% and 65.2%. Besides, the IC50 (curve of compound) is more than 10000 nM.

On to `CCN1CCN(Cc2ccc(Nc3ncc(F)c(-c4cc(F)c5nc(C)n(C(C)C)c5c4)n3)nc2)CC1`, for which the viability, T/C by setting is: (compound 0.00316 µM) 100% and 102%; (compound 0.01 µM) 86.8% and 96.5%; (compound 0.0316 µM) 98.5% and 88%; (compound 0.1 µM) 93.8% and 104%; (compound 0.316 µM) 94.1% and 98.2%; (compound 1 µM) 102% and 64.3%. Where the note is “curve of compound”, the IC50 was more than 1000 nM.

With `CCc1c2c(nc3ccc(O)cc13)-c1cc3c(c(=O)n1C2)COC(=O)[C@]3(O)CC`, the viability, T/C was 88.5% and 83.9% (compound 0.00316 µM); 62.1% and 59.6% (compound 0.01 µM); 87.1% and 45.6% (compound 0.0316 µM); 92.3% and 52.8% (compound 0.1 µM); 80.8% and 49.8% (compound 0.316 µM); 42% and 37.8% (compound 1 µM).

Consider `CNC(=O)c1ccc(Nc2nc(OC3CCCC3)c3c(-c4ccc5nc(C)oc5c4)c[nH]c3n2)c(OC)c1`, for which the viability, T/C (compound 0.0316 µM) was 93.9% [middle of 12 runs]; the viability, T/C (compound 0.316 µM) was 74% [middle of 12 runs]; the viability, T/C (compound 3.16 µM) was 75.3% [middle of 12 runs]; the viability, T/C (compound 10 µM) is 72.6% [middle of 12 runs]. The IC50 (compound alone, run of 08/01/2023) is more than 10000 nM.

`COC1C=CCC(C)C(C)S(=O)(=O)NC(=O)c2ccc3c(c2)N(CC2CCC21)CC1(CCCc2cc(Cl)ccc21)CO3` (stereo unspecified): the viability, T/C was 101% and 96.4% (compound 0.0316 µM); 86.9% and 97.1% (compound 0.1 µM); 74% and 90.9% (compound 0.316 µM); 80.4% and 83.1% (compound 1 µM); 58.9% and 76% (compound 3.16 µM); 5.33% and 8.83% (compound 10 µM). For the same compound, the IC50 (curve of compound) is 3630 nM and 4800 nM.

For `COc1c(OCCCN2CCOCC2)ccc2c3n(c(=NC(=O)c4cnc(N)nc4)nc12)CCN3`, the viability, T/C by setting is: (compound 0.00316 µM) 83%; (compound 0.01 µM) 86%; (compound 0.0316 µM) 88.8%; (compound 0.1 µM) 49.3%; (compound 0.316 µM) 34.4%; (compound 1 µM) 3.62%. Moreover, the IC50 (curve of compound) was 141 nM.

On to `Cn1ncnc1[C@H]1c2n[nH]c(=O)c3cc(F)cc(c23)N[C@@H]1c1ccc(F)cc1`, for which the viability, T/C runs as follows: (compound 0.000316 µM) 100% and 107%; (compound 0.001 µM) 85.7% and 92%; (compound 0.00316 µM) 100% and 103%; (compound 0.01 µM) 97.6% and 97.4%; (compound 0.0316 µM) 100% and 97.1%; (compound 0.1 µM) 103% and 96%. Further, for the setting “curve of compound”, the IC50 is more than 100 nM.

As for `NC(=O)C(=Cn1cnc(-c2cc(C(F)(F)F)cc(C(F)(F)F)c2)n1)c1cncnc1`, the viability, T/C is, setting by setting: (compound 0.00949 µM) 79.8% and 85.7%; (compound 0.03 µM) 92.3% and 86.1%; (compound 0.0949 µM) 94.4% and 92.1%; (compound 0.3 µM) 70.9% and 61.6%; (compound 0.949 µM) 57.1% and 48%; (compound 3 µM) 19.2% and 7.79%. The concentration for half-maximal inhibition (IC50) (curve of compound) is 1120 nM and 750 nM.

On to `Nc1ccccc1NC(=O)c1ccc(CNC(=O)OCc2cccnc2)cc1`, for which the viability, T/C is 91.4% and 90.3% (compound 0.0316 µM); 87.2% and 89.8% (compound 0.1 µM); 74.4% and 96.3% (compound 0.316 µM); 78% and 89.7% (compound 1 µM); 32.4% and 33.4% (compound 3.16 µM); 0.79% and 1.47% (compound 10 µM). Moreover, the IC50 (curve of compound) is 2000 nM and 2250 nM.

Values taken from PubChem BioAssay AID2060613 (Molecular Pharmacology Branch, DTP, NCI, 2025).
